In patent US20220340951A1, “MEASURING THE ANTIMICROBIAL SUSCEPTIBILITY OF MICROBES” (priority 2019, published 2022):
≈ marks a conversion by molar mass, not a printed value. Entries after “also recorded” stand apart in the source; their conditions may differ.

Experiments:
[1] = Antibiotic screening: CV, EIS and DPV of antibiotic solutions (without gels) on gold screen printed electrode; assay type: physicochemical; conditions: antibiotic at typical working concentration, no gel; for Phase / Z at 100 kHz: EIS; for CDL / RSOLN: fitted EIS
Protocol: CV measurements were performed by sweeping the potential between −0.3 V to 0.5 V with reference to the Ag electrode three times. Analysis was performed using the third measurement. Electrodes were also characterised using differential pulse voltammetry (DPV) across the same potential range as CV. Peak current (Ipk) was extracted from the DPV measurement. Electrodes were also characterised using EIS. […] The Nyquist and Bode impedance plots that were generated were fitted to the Randles' equivalent circuit to extract various impedance parameters. […] A wide spectrum of antibiotics were tested including amoxicillin, oxacillin, methicillin, ampicillin, chloramphenicol, gentamicin, streptomycin and carbenicillin. […] Amoxicillin was then tested in an agarose gel with and without FF-C present (FIG. 2 (b)). […] The majority of the parameters are taken from fitted EIS data alongside Ipk from DPV measurements.

sensitive S. aureus = assay: Gel streak plate growth (1 wt % agarose + LB); assay type: cell-based, Staphylococcus aureus; conditions: amoxicillin 8 μg/ml; with or without FF-C
[2] = test system: methicillin-resistant S. aureus (MRSA); assay: Gel streak plate growth (1 wt % agarose + LB Broth + FF-C); assay type: cell-based, Staphylococcus aureus; conditions: amoxicillin 8 μg/ml
MRSA = assay: Minimum inhibitory concentration by two-fold broth microdilution; assay type: cell-based; conditions: Staphylococcus aureus; strain not stated explicitly; printed in the MRSA context
[3] = test system: methicillin-resistant Staphylococcus aureus (MRSA: ATCC 43300); assay: Electrochemical (EIS/DPV) bacterial growth profile on antibiotic-infused gel-modified electrode; assay type: cell-based
[4] = test system: Staphylococcus aureus (ATCC 29213); assay: Electrochemical (EIS) bacterial growth profile on antibiotic-infused gel-modified electrode; assay type: cell-based; conditions: for Z at 100 kHz growth profile compared with baseline (no bacteria): antibiotic 8 μg/ml in gel, up to 150 minutes
E. coli (ATCC 25922) = assay: Minimum inhibitory concentration of streptomycin as used in E. coli gels; assay type: cell-based; conditions: Escherichia coli, ATCC25922

Molecule: CC1(C)S[C@@H]2[C@H](NC(=O)[C@H](N)c3ccc(O)cc3)C(=O)N2[C@H]1C(=O)O [amoxicillin]
- DPV Ipk [1]: 0.02 μA
- Phase [1]: 82.74 °
- Z at 100 kHz [1]: 21.34 kΩ
- CDL [1]: 0.53 μF
- RSOLN [1]: 143.30 kΩ
- growth on streak plate (sensitive S. aureus): completely inhibited; also recorded: unable to grow
- growth on streak plate [2]: displays growth either in the presence or absence of amoxicillin
- MIC (MRSA): ~8 µg/mL (≈ 21.9 µM)
- change in Z (baseline subtracted) ([3]; amoxicillin 8 μg/ml gel, over 30-100 minutes): ~11 Ω
- Z at 100 kHz growth profile compared with baseline (no bacteria) ([3]; amoxicillin 8 μg/ml in gel): does not imitate the baseline
- DPV peak current (Ipk) growth profile, baseline subtracted ([3]; amoxicillin 50 μg/ml gel): almost completely flat
- change in Z (baseline subtracted) ([3]; amoxicillin 50 μg/ml gel, 30-100 minutes): virtually no change in Z
- Z at 100 kHz growth profile compared with baseline (no bacteria) ([3]; amoxicillin 50 μg/ml in gel): very similar profile to the baseline measurement
- baseline-subtracted Z at 100 kHz over time ([4]; amoxicillin-laden gel 8 μg/ml, between 30 and 100 minutes): unchanging
- Z at 100 kHz growth profile compared with baseline (no bacteria) [4]: almost identical response to the baseline response

Molecule: CC1(C)S[C@@H]2[C@H](NC(=O)[C@H](N)c3ccccc3)C(=O)N2[C@H]1C(=O)O [ampicillin]
- DPV Ipk [1]: 0 μA
- Phase [1]: 67.63 °
- Z at 100 kHz [1]: 10.88 kΩ
- CDL [1]: 0.38 μF
- RSOLN [1]: 40.93 kΩ

Molecule: CC1(C)S[C@@H]2[C@H](NC(=O)C(C(=O)O)c3ccccc3)C(=O)N2[C@H]1C(=O)O (stereo partly drawn) [carbenicillin]
- DPV Ipk [1]: 0 μA
- Phase [1]: 46.56 °
- Z at 100 kHz [1]: 7.54 kΩ
- CDL [1]: 0.44 μF
- RSOLN [1]: 11.83 kΩ

Molecule: O=C(N[C@H](CO)[C@H](O)c1ccc([N+](=O)[O-])cc1)C(Cl)Cl [chloramphenicol]
- DPV Ipk [1]: 0.31 μA
- Phase [1]: 76.20 °
- Z at 100 kHz [1]: 19.06 kΩ
- CDL [1]: 0.41 μF
- RSOLN [1]: 94.39 kΩ

Molecule: COc1cccc(OC)c1C(=O)N[C@@H]1C(=O)N2[C@@H]1SC(C)(C)[C@@H]2C(=O)O [methicillin]
- DPV Ipk [1]: 0.06 μA
- Phase [1]: 61.43 °
- Z at 100 kHz [1]: 15.92 kΩ
- CDL [1]: 0.53 μF
- RSOLN [1]: 67.30 kΩ

Molecule: Cc1onc(-c2ccccc2)c1C(=O)N[C@@H]1C(=O)N2[C@@H]1SC(C)(C)[C@@H]2C(=O)O [oxacillin]
- DPV Ipk [1]: 0 μA
- Phase [1]: 111.17 °
- Z at 100 kHz [1]: 22.79 kΩ
- CDL [1]: 0.28 μF
- RSOLN [1]: 49.81 kΩ
- Z growth curves for gels with and without oxacillin ([3]; oxacillin 8 μg/ml gel): look very similar for gels with and without oxacillin
- Z at 100 kHz growth profile compared with baseline (no bacteria) [4]: very similar Z profile to the baseline measurement
- baseline-subtracted Z at 100 kHz over time ([4]; oxacillin gel 8 μg/ml, up to ~70 minutes): remains fairly flat

Molecule: [H]/N=C(/N)N[C@H]1[C@H](O)[C@@H](O)[C@H](O[C@@H]2O[C@@H](C)[C@](O)(C=O)[C@H]2O[C@@H]2O[C@@H](CO)[C@H](O)[C@@H](O)[C@@H]2NC)[C@@H](N/C(N)=N\[H])[C@@H]1O [streptomycin]
- DPV Ipk [1]: 0 μA
- Phase [1]: 58.51 °
- Z at 100 kHz [1]: 16.45 kΩ
- CDL [1]: 0.58 μF
- RSOLN [1]: 55.85 kΩ
- MIC (E. coli (ATCC 25922)): ~4 µg/mL (≈ 6.88 µM)

Molecule: gentamicin
- DPV Ipk [1]: 0.01 μA
- Phase [1]: 31.68 °
- Z at 100 kHz [1]: 6.05 kΩ
- CDL [1]: 0.77 μF
- RSOLN [1]: 7.97 kΩ
